Measurements: ChEMBL document CHEMBL3992552, “Mechanisms of action and structure-activity relationships of cytotoxic flavokawain derivatives” (Bioorg Med Chem, 2017)
Active and inactive are the calls of the source. The calls are words filed in the database; no cut-off is given here.

Experiments:
[1] = test system: HCT-116; assay: Cytotoxicity against human HCT116 cells assessed as cell survival at 50 uM after 48 hrs by Hoechst 33342 staining based assay relative to control; format: functional; settings: HCT-116, 48 h, read-out: Survival
[2] = test system: PC-3; assay: Cytotoxicity against human PC3 cells assessed as cell survival at 50 uM after 48 hrs by Hoechst 33342 staining based assay relative to control; format: functional; settings: PC-3, 48 h, read-out: Survival
[3] = test system: HaCaT; assay: Cytotoxicity against human HaCaT cells assessed as cell survival at 50 uM after 48 hrs by Hoechst 33342 staining based assay relative to control; format: functional; settings: read-out: Survival
[4] = Cytotoxicity against human fibroblasts assessed as cell survival at 50 uM after 48 hrs by Hoechst 33342 staining based assay relative to control; set-up: species or system Fibroblast; settings: read-out: Survival
[5] = test system: Fibroblast; assay: Cytotoxicity against human fibroblasts assessed as cell viability after 48 hrs by Hoechst 33342 staining based assay
[6] = test system: RL; assay: Cytotoxicity against human RL assessed as cell viability after 48 hrs by Hoechst 33342 staining based assay; format: functional
[7] = test system: MCF7; assay: Cytotoxicity against human MCF7 assessed as cell viability after 48 hrs by Hoechst 33342 staining based assay; format: functional; settings: MCF7, 48 h
[8] = Selectivity index, ratio of IC50 for human fibroblasts to IC50 for human MDA-MB-231 cells
[9] = Selectivity index, ratio of IC50 for human fibroblasts to IC50 for human HCT116 cells
[10] = Selectivity index, ratio of IC50 for human fibroblasts to IC50 for human PC3 cells
[11] = Selectivity index, ratio of IC50 for human fibroblasts to IC50 for human HaCaT cells
[12] = Selectivity index, ratio of IC50 for human fibroblasts to IC50 for human RL cells
[13] = test system: HCT-116; assay: Induction of apoptosis in human HCT116 cells harboring wild-type p53 assessed as increase in late apoptosis at 2 times IC50 after 48 hrs by YoPro/propidium iodide/Hoechst staining based assay; format: functional, cell-based
[14] = test system: PC-3; assay: Induction of apoptosis in human PC3 cells harboring p53 mutant assessed as increase in late apoptosis at 2 times IC50 after 48 hrs by YoPro/propidium iodide/Hoechst staining based assay; format: functional, cell-based
[15] = test system: MCF7; assay: Induction of apoptosis in human MCF7 cells harboring wild-type p53 assessed as increase in early apoptosis at 2 times IC50 after 24 hrs by YoPro/propidium iodide/Hoechst staining based assay; format: functional, cell-based
[16] = test system: HCT-116; assay: Induction of apoptosis in human HCT116 cells harboring wild-type p53 assessed as increase in cleaved caspase3 at 2 times IC50 after 48 hrs by Hoechst staining based assay; format: functional, cell-based
[17] = test system: Caco-2; assay: Cell cycle arrest in human Caco2 cells assessed as accumulation at S phase at 10 uM measured after 48 hrs by Hoechst/BrdU staining based fluorescence assay (reference value: […]); format: functional
[18] = test system: MDA-MB-231; assay: Cell cycle arrest in human MDA-MB-231 cells harboring p53 mutant assessed as mitotic index at 10 uM measured after 48 hrs by Hoechst staining based fluorescence assay (reference value: 2.1); format: functional
[19] = test system: MDA-MB-231; assay: Cell cycle arrest in human MDA-MB-231 cells harboring p53 mutant assessed as accumulation at S phase at 10 uM measured after 48 hrs by Hoechst/BrdU staining based fluorescence assay (reference value: 42.2%); format: functional
[20] = test system: PC-3; assay: Cell cycle arrest in human PC3 cells harboring p53 mutant assessed as mitotic index at 10 uM measured after 48 hrs by Hoechst staining based fluorescence assay (reference value: 2.5); format: functional
[21] = test system: HaCaT; assay: Cell cycle arrest in human HaCaT cells harboring […] p53 assessed as mitotic index at 10 uM measured after 48 hrs by Hoechst staining based fluorescence assay (reference value: 2.6); format: functional
[22] = test system: Huh-7; assay: Cell cycle arrest in human HuH7 cells assessed as mitotic index at 25 uM measured after 48 hrs by Hoechst staining based fluorescence assay (reference value: 2.2); format: functional
[23] = test system: Caco-2; assay: Cell cycle arrest in human Caco2 cells assessed as mitotic index at 25 uM measured after 48 hrs by Hoechst staining based fluorescence assay (reference value: 3.6); format: functional
[24] = test system: MDA-MB-231; assay: Cell cycle arrest in human MDA-MB-231 cells harboring p53 mutant assessed as mitotic index at 25 uM measured after 48 hrs by Hoechst staining based fluorescence assay (reference value: 2.1); format: functional
[25] = test system: MDA-MB-231; assay: Cell cycle arrest in human MDA-MB-231 cells harboring p53 mutant assessed as accumulation at S phase at 25 uM measured after 48 hrs by Hoechst/BrdU staining based fluorescence assay (reference value: 42.2%); format: functional
[26] = test system: HCT-116; assay: Cell cycle arrest in human HCT116 cells harboring wild-type p53 assessed as mitotic index at 25 uM measured after 48 hrs by Hoechst staining based fluorescence assay (reference value: 2.3); format: functional
[27] = test system: HCT-116; assay: Cell cycle arrest in human HCT116 cells harboring wild-type p53 assessed as accumulation at S phase at 25 uM measured after 48 hrs by Hoechst/BrdU staining based fluorescence assay (reference value: 68.4%); format: functional
[28] = test system: PC-3; assay: Cell cycle arrest in human PC3 cells harboring p53 mutant assessed as mitotic index at 25 uM measured after 48 hrs by Hoechst staining based fluorescence assay (reference value: 2.5); format: functional
[29] = test system: PC-3; assay: Cell cycle arrest in human PC3 cells harboring p53 mutant assessed as accumulation at S phase at 25 uM measured after 48 hrs by Hoechst/BrdU staining based fluorescence assay (reference value: 40.8%); format: functional
[30] = test system: HaCaT; assay: Cell cycle arrest in human HaCaT cells harboring […] p53 assessed as mitotic index at 25 uM measured after 48 hrs by Hoechst staining based fluorescence assay (reference value: 2.6); format: functional
[31] = test system: HaCaT; assay: Cell cycle arrest in human HaCaT cells harboring […] p53 assessed as accumulation at S phase at 25 uM measured after 48 hrs by Hoechst/BrdU staining based fluorescence assay (reference value: 52.3%); format: functional
[32] = test system: Caco-2; assay: Cell cycle arrest in human Caco2 cells assessed as accumulation at M phase by Hoechst staining based fluorescence assay; format: functional
[33] = test system: HCT-116; assay: Cell cycle arrest in human HCT116 cells assessed as accumulation at G1/S phase by Hoechst staining based fluorescence assay; format: functional
[34] = test system: PC-3; assay: Cell cycle arrest in human PC3 cells assessed as accumulation at M phase by Hoechst staining based fluorescence assay; format: functional
[35] = test system: NCI-H727; assay: Cell cycle arrest in human NCI-H727 cells assessed as accumulation at G1/S phase by Hoechst staining based fluorescence assay; format: functional
[36] = test system: HCT-116; assay: Induction of apoptosis in human HCT116 cells harboring wild-type p53 assessed as upregulation of p21 measured after 48 hrs by Hoechst staining based fluorescence assay; format: functional, cell-based
[37] = test system: MCF7; assay: Induction of apoptosis in human MCF7 cells harboring wild-type p53 assessed as upregulation of p21 measured after 48 hrs by Hoechst staining based fluorescence assay; format: functional, cell-based
[38] = test system: HCT-116; assay: Induction of apoptosis in human HCT116 cells harboring wild-type p53 assessed as upregulation of cyclinB1 measured after 48 hrs by Hoechst staining based assay; format: functional, cell-based
[39] = test system: MDA-MB-231; assay: Induction of apoptosis in human MDA-MB-231 cells harboring p53 mutant assessed as upregulation of cyclinB1 after 18 hrs by Hoechst staining based assay; format: functional, cell-based

Compound `COc1cc(OC)c(C(=O)/C=C/c2ccc(Br)cc2)c(OC)c1` has a viability at 50 µM [1] of 0%, a viability at 50 µM [2] of 10% and a viability at 50 µM [3] of 6%. The viability at 48 h, 50 µM [4] was 57%, the IC50 [5] was > 20 µM and the IC50 [6] was 8.3 µM. For the same compound, the IC50 [7] was 9.5 µM, the “Ratio IC50” value [8] was >4.5 and the “Ratio IC50” value [9] was >8.1. The “Ratio IC50” value [10] was >7, the “Ratio IC50” value [11] was >5.6 and the “Ratio IC50” value [12] was >6. The Activity [13] was “Active”, the Activity [14] was “Active” and the Activity [15] was “Active”. For the same compound, the Activity [16] was “Active”, the Activity [17] was 36% and the Activity_index [18] was 15. For the same compound, the Activity [19] was 42%, the Activity_index [20] was 2.5 and the Activity_index [21] was 19. For the same compound, the Activity_index [22] was 0.1, the Activity_index [23] was 1.4 and the Activity_index [24] was 3.4. It also gave an Activity [25] of 44%, an Activity_index [26] of 0.6 and an Activity [27] of 68%. The Activity_index [28] was 0, the Activity [29] was 0.4% and the Activity_index [30] was 0. For the same compound, the Activity [31] was 0.3%, the Activity [32] was “Active” and the Activity [33] was “Active”. For the same compound, the Activity [34] was “Active”, the Activity [35] was “Active” and the Activity [36] was “Active”. The Activity [37] was “Active”, the Activity [38] was “Active” and the Activity [39] was “Active”.
For `COc1cc(OC)c(C(=O)/C=C/c2ccc(F)cc2)c(OC)c1`, the viability at 50 µM [1] was 1%, the viability at 50 µM [2] was 26% and the viability at 50 µM [3] was 21%. For the same compound, the viability at 48 h, 50 µM [4] was 78%, the IC50 [5] was > 20 µM and the IC50 [6] was 6.4 µM. The IC50 [7] was 7.7 µM, the “Ratio IC50” value [8] was >4.7 and the “Ratio IC50” value [9] was >8.1. The “Ratio IC50” value [10] was >9.1, the “Ratio IC50” value [11] was >6.6 and the “Ratio IC50” value [12] was >7.8. For the same compound, the Activity [13] was “Active”, the Activity [14] was “Active” and the Activity [15] was “Active”. For the same compound, the Activity [16] was “Active”, the Activity [17] was 39% and the Activity_index [18] was 22. The Activity [19] was 43%, the Activity_index [20] was 14.6 and the Activity_index [21] was 10.7. The Activity_index [22] was 1.3, the Activity_index [23] was 4.2 and the Activity_index [24] was 4.8. It also gave an Activity [25] of 10%, an Activity_index [26] of 0.4 and an Activity [27] of 0.7%. It also gave an Activity_index [28] of 0.4, an Activity [29] of 0.4% and an Activity_index [30] of 0. For the same compound, the Activity [31] was 0.4%, the Activity [32] was “Active” and the Activity [33] was “Active”. The Activity [34] was “Active”, the Activity [35] was “Active” and the Activity [36] was “Active”. The Activity [37] was “Active”, the Activity [38] was “Active” and the Activity [39] was “Active”.
With `COc1cc(OC)c(C(=O)/C=C/c2ccccc2SC)c(OC)c1` the viability at 50 µM [1] was 0%, the viability at 50 µM [2] was 30% and the viability at 50 µM [3] was 6%. The viability at 48 h, 50 µM [4] was 74%, the IC50 [5] was > 20 µM and the IC50 [6] was 8.3 µM. The IC50 [7] was 9.3 µM, the “Ratio IC50” value [8] was 3.2 and the “Ratio IC50” value [9] was 4.7. The “Ratio IC50” value [10] was 4.2, the “Ratio IC50” value [11] was 4.1 and the “Ratio IC50” value [12] was 3.8. For the same compound, the Activity [13] was “Active”, the Activity [14] was “Active” and the Activity [15] was “Active”. The Activity [16] was “Active”, the Activity [17] was 36% and the Activity_index [18] was 18. It also gave an Activity [19] of 48%, an Activity_index [20] of 12.1 and an Activity_index [21] of 18.9. For the same compound, the Activity_index [22] was 0.4, the Activity_index [23] was 4.2 and the Activity_index [24] was 13.2. The Activity [25] was 16%, the Activity_index [26] was 0.4 and the Activity [27] was 0.5%. For the same compound, the Activity_index [28] was 0.3, the Activity [29] was 0% and the Activity_index [30] was 0.1. For the same compound, the Activity [31] was 0%, the Activity [32] was “Active” and the Activity [33] was “Active”. The Activity [34] was “Active”, the Activity [35] was “Active” and the Activity [36] was “Active”. For the same compound, the Activity [37] was “Active”, the Activity [38] was “Active” and the Activity [39] was “Active”.
